Results as given in patent US8084457B2, “Pharmaceutically active 4,6-disubstituted aminopyrimidine derivatives as modulators of protein kinases” (Lead Discovery Center GmbH, priority 2003, dated 2011).

Tests used:
CDK2/CyclinA = biological target: T1, CDK2/CyclinA (Homo sapiens, UniProt P24941); assay: Kinase assay determining CDK2/CyclinA activity; format: biochemical; conditions: read-out: CDK2 (activity range)
T1 construct: purchased Proqinase
Description: Kinase Assays Determining CDK2/CyclinA and CDK5/p35 Activity:
Kinase assays were performed as described by the manufacturers recommendations (Proqinase for CDK2/CyclinA and Upsate for CDK5/p35).

CDK9/Cyclin T1 = biological target: T2, CDK9/Cyclin T1 (Homo sapiens, UniProt P50750); assay: Kinase assay using CDK9/Cyclin T1; format: biochemical; conditions: read-out: CDK9 (activity range)
T2 construct: made in house; host or cells: HEK293 cells, recombinant adenovirus
T2 sequence (P50750 whole entry): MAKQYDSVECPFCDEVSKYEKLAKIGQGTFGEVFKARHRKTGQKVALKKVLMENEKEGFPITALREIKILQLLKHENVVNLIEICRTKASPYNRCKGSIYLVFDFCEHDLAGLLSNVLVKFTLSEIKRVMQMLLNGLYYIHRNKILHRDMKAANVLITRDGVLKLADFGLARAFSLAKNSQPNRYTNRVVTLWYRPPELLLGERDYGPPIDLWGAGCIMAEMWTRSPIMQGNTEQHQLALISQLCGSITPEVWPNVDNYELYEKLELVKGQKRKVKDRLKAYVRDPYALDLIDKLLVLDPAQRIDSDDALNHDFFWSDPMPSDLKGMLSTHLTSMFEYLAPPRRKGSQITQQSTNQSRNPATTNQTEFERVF
T2 sequence (O60563 whole entry partner): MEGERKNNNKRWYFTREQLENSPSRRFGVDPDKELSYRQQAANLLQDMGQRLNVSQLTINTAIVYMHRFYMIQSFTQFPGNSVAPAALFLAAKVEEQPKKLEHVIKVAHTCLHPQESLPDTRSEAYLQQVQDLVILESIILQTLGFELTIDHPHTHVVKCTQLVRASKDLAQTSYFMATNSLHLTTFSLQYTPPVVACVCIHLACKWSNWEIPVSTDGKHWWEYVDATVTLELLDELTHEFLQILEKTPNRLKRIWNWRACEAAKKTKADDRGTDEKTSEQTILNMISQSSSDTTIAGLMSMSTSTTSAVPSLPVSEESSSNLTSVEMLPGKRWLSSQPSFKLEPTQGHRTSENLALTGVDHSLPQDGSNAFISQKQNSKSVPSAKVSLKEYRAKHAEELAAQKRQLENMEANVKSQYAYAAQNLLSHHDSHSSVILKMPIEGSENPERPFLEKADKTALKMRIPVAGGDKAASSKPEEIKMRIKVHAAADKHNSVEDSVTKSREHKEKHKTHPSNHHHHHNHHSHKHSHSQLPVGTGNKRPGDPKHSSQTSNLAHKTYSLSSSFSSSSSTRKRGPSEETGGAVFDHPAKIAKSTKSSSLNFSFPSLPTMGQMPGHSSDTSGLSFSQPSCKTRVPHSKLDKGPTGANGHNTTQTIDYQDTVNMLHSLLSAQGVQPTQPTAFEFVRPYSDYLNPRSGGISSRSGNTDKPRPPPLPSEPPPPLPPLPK
From the text: Cloning of CDK9 and Cyclin T1:
Both cDNA fragments were cloned by PCR into pDONR201 vectors using the gateway recombination system (Invitrogen) according to the manufacturer's recommendations. The fragments were subcloned into a gateway-adapted shuttle vector (pPM7) for production of recombinant adenovirus. All plasmids were verified by restriction digests and sequencing analysis.
Expression and Purification of CDK9/Cyclin T1 Proteins:
Expression and purification was in principle performed as described by Cotten et al. (M. Cotten et al., Nucleic acids research, 2003, 31(28), 128).
Kinase Assay Using CDK9/Cyclin T1:
Kinase assays were performed in principle as described by Cotten et al. (M. Cotten et al., Nucleic acids research, 2003, 31(28), 128).

SMILES: COc1cccc(-c2cc(Nc3ccc(C)c(NS(C)(=O)=O)c3)ncn2)c1 [(100)]
- IC50 (CDK2/CyclinA): 1 to 10 µM
- IC50 (CDK9/Cyclin T1): 1 to 10 µM

SMILES: Oc1ccccc1-c1cc(NCCc2ccncc2)ncn1 [(94)]
- IC50 (CDK2/CyclinA): 10 to 250 µM
- IC50 (CDK9/Cyclin T1): 1 to 10 µM

SMILES: COc1ccccc1-c1cc(N(C)c2ccc(NS(=O)(=O)c3ccc(C)cc3)cc2)ncn1 [(96)]
- IC50 (CDK2/CyclinA): 1 to 10 µM
- IC50 (CDK9/Cyclin T1): 1 to 10 µM

SMILES: COc1ccccc1-c1cc(Nc2ccc(NC(=O)C(C)(C)C)cc2C)ncn1 [(119)]
- IC50 (CDK2/CyclinA): 10 to 250 µM
- IC50 (CDK9/Cyclin T1): 10 to 250 µM

SMILES: CC(C)(C)C(=O)Nc1ccc(Nc2cc(-c3ccccc3C(F)(F)F)ncn2)cc1 [(114)]
- IC50 (CDK2/CyclinA): 10 to 250 µM
- IC50 (CDK9/Cyclin T1): 10 to 250 µM

SMILES: O=C(Nc1ccc(Nc2cc(-c3ccccc3OCc3ccccc3)ncn2)cc1)[C@@H]1CCCCN1 [(164)]
- IC50 (CDK2/CyclinA): 0.001 to 1 µM
- IC50 (CDK9/Cyclin T1): 0.001 to 1 µM

SMILES: COc1ccccc1-c1cc(Nc2ccc(NC(=O)C3(NC(=O)OC(C)(C)C)CCCC3)cc2)ncn1 [(47)]
- IC50 (CDK2/CyclinA): 10 to 250 µM
- IC50 (CDK9/Cyclin T1): 0.001 to 1 µM

SMILES: COc1ccccc1-c1cc(Nc2ccc(NC(=O)C3CC4CCC3C4)cc2)ncn1 (stereo not shown) [(36)]
- IC50 (CDK2/CyclinA): 10 to 250 µM
- IC50 (CDK9/Cyclin T1): 0.001 to 1 µM

SMILES: COc1ccccc1-c1cc(Nc2ccc(NS(=O)(=O)c3ccc(C(C)C)cc3)cc2)ncn1 [(23)]
- IC50 (CDK2/CyclinA): 1 to 10 µM
- IC50 (CDK9/Cyclin T1): 0.001 to 1 µM

SMILES: COc1ccccc1-c1cc(Nc2ccc(NC(=O)c3ccc(N)cc3)cc2)nc(N)n1 [(97)]
- IC50 (CDK2/CyclinA): 10 to 250 µM
- IC50 (CDK9/Cyclin T1): 1 to 10 µM

SMILES: COC(=O)CN(c1ccc(Nc2cc(-c3ccc(O)cc3)ncn2)cc1)S(=O)(=O)c1ccc(C)cc1 [(27)]
- IC50 (CDK2/CyclinA): 0.001 to 1 µM
- IC50 (CDK9/Cyclin T1): 1 to 10 µM

SMILES: COc1ccc(-c2cc(Nc3ccc(NC(=O)c4ccc(N)cc4)cc3)ncn2)cc1 [(6)]
- IC50 (CDK2/CyclinA): 1 to 10 µM
- IC50 (CDK9/Cyclin T1): 0.001 to 1 µM

SMILES: COc1ccccc1-c1cc(Nc2ccc(NC(=O)[C@@H]3CCCCN3C(=O)OC(C)(C)C)cc2)ncn1 [(29)]
- IC50 (CDK2/CyclinA): 1 to 10 µM
- IC50 (CDK9/Cyclin T1): 0.001 to 1 µM

SMILES: COc1ccccc1-c1cc(Nc2ccc(NC(=O)CC(C)(C)C)cc2)ncn1 [(42)]
- IC50 (CDK2/CyclinA): 1 to 10 µM
- IC50 (CDK9/Cyclin T1): 1 to 10 µM

SMILES: COc1ccccc1-c1cc(Nc2cccc(S(C)(=O)=O)c2)ncn1 [(185)]
- IC50 (CDK2/CyclinA): 0.001 to 1 µM
- IC50 (CDK9/Cyclin T1): 0.001 to 1 µM

SMILES: COc1ccc(C(C)C)cc1-c1cc(Nc2ccc(NC(=O)c3ccc(N)cc3)cc2)ncn1 [(35)]
- IC50 (CDK2/CyclinA): 10 to 250 µM
- IC50 (CDK9/Cyclin T1): 10 to 250 µM

SMILES: CS(=O)(=O)Nc1cccc(Nc2cc(-c3cccc(N)c3)ncn2)c1 [(121)]
- IC50 (CDK2/CyclinA): 1 to 10 µM
- IC50 (CDK9/Cyclin T1): 0.001 to 1 µM

SMILES: Nc1ccc(C(=O)Nc2ccc(Nc3cc(-c4ccccc4O)ncn3)cc2)cc1 [(151)]
- IC50 (CDK2/CyclinA): 10 to 250 µM
- IC50 (CDK9/Cyclin T1): 10 to 250 µM

SMILES: Cc1ccc(Nc2cc(-c3cccc(C#N)c3)ncn2)cc1NS(C)(=O)=O [(163)]
- IC50 (CDK2/CyclinA): 1 to 10 µM
- IC50 (CDK9/Cyclin T1): 1 to 10 µM

SMILES: CCCN(c1ccc(Nc2cc(-c3ccccc3OC)ncn2)cc1)S(=O)(=O)c1ccc(C)cc1 [(18)]
- IC50 (CDK2/CyclinA): 10 to 250 µM
- IC50 (CDK9/Cyclin T1): 1 to 10 µM

SMILES: COc1ccccc1-c1cc(Nc2ccc(NS(=O)(=O)c3ccc(-c4ccccc4)cc3)cc2)ncn1 [(34)]
- IC50 (CDK2/CyclinA): 1 to 10 µM
- IC50 (CDK9/Cyclin T1): 1 to 10 µM

SMILES: COc1ccccc1-c1cc(Nc2ccc(NC(=O)C(c3ccccc3)N(C)C)cc2)ncn1 (stereo not shown) [(101)]
- IC50 (CDK2/CyclinA): 1 to 10 µM
- IC50 (CDK9/Cyclin T1): 0.001 to 1 µM

SMILES: COc1ccccc1-c1cc(Nc2ccc(-c3nc4ccccc4o3)cc2)ncn1 [(62)]
- IC50 (CDK2/CyclinA): 10 to 250 µM
- IC50 (CDK9/Cyclin T1): 10 to 250 µM

SMILES: COc1ccccc1-c1cc(Nc2ccc(NC(=O)C(c3ccccc3)C(C)C)cc2)ncn1 (stereo not shown) [(37)]
- IC50 (CDK2/CyclinA): 10 to 250 µM
- IC50 (CDK9/Cyclin T1): 1 to 10 µM

SMILES: CC(C)(C)C(=O)Nc1ccc(Nc2cc(NCCCO)ncn2)cc1 [(80)]
- IC50 (CDK2/CyclinA): 10 to 250 µM
- IC50 (CDK9/Cyclin T1): 10 to 250 µM

SMILES: CC(C)Oc1ccccc1-c1cc(Nc2ccc(NC(=O)c3ccc(N)cc3)cc2)ncn1 [(58)]
- IC50 (CDK2/CyclinA): 0.001 to 1 µM
- IC50 (CDK9/Cyclin T1): 0.001 to 1 µM

SMILES: Cc1ccc(Nc2cc(-c3cccc(N)c3)ncn2)cc1NS(=O)(=O)c1cn(C)cn1 [(144)]
- IC50 (CDK2/CyclinA): 0.001 to 1 µM
- IC50 (CDK9/Cyclin T1): 0.001 to 1 µM

SMILES: Cc1ccc(Nc2cc(-c3cccc(CO)c3)ncn2)cc1NS(C)(=O)=O [(183)]
- IC50 (CDK2/CyclinA): 1 to 10 µM
- IC50 (CDK9/Cyclin T1): 1 to 10 µM

SMILES: COc1ccccc1-c1cc(Nc2ccc(NC(=O)CC3CCCCN3C(=O)OC(C)(C)C)cc2)ncn1 (stereo not shown) [(48)]
- IC50 (CDK2/CyclinA): 1 to 10 µM
- IC50 (CDK9/Cyclin T1): 1 to 10 µM
